The target of assay [1] is T1, 5'-methylthioadenosine/S-adenosylhomocysteine nucleosidase (Vibrio cholerae serotype O1 (strain ATCC 39315 / El Tor Inaba N16961), UniProt Q9KPI8).
T1 sequence (Q9KPI8 whole entry): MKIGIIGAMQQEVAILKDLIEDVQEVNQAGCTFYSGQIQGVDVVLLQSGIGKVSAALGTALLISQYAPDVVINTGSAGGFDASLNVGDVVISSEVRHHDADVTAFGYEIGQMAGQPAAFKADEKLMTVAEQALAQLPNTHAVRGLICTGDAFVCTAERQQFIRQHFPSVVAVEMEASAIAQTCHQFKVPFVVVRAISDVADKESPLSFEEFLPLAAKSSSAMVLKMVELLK
As to the kind of experiment: Binding affinity to His-tagged Vibrio cholerae recombinant MTAN expressed in Escherichia coli […].

Assay [2] deals with Escherichia coli. Briefly: Antibacterial activity Escherichia coli O157:H7 EDL933 at 1 uM. The format is functional, organism-based.
Assay [3] has as its system Escherichia coli. As to the kind of experiment: Antibacterial activity against Escherichia coli O157:H7 EDL933 at 1 uM after 24 hrs. The format is functional, organism-based.
For assay [4], the system named is Escherichia coli. As to the kind of experiment: Antibacterial activity Escherichia coli O157:H7 EDL933 assessed as induction of growth deffect at 0.5 uM after 16 hrs. It is filed as functional, organism-based.
In assay [5] the target is 5'-methylthioadenosine/S-adenosylhomocysteine nucleosidase (Escherichia coli O157:H7) (UniProt P0AF14). As to the kind of experiment: (§1) Inhibition of Escherichia coli O157:H7 EDL933 MTAN-mediated autoinducer-2 production assessed as inhibition of light induction in quorum-sensing Vibrio harveyi BB120 by luminescence induction assay.
5'-methylthioadenosine/S-adenosylhomocysteine nucleosidase (Escherichia coli O157:H7), sequence (P0AF14 whole entry, looked up): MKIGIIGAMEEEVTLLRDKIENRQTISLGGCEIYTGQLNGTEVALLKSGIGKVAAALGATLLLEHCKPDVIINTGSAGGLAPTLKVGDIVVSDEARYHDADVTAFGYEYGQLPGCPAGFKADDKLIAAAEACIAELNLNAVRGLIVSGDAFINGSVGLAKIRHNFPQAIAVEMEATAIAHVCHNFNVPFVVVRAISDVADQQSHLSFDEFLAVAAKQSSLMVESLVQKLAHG
Assay [6] relates to Escherichia coli. As to the kind of experiment: Antibacterial activity Escherichia coli O157:H7 EDL933 at 2.5 uM. It is filed as functional, organism-based.
Assay [7] is described as follows: Inhibition of Escherichia coli MTAN.
Assay [8] relates to Escherichia coli. Briefly: Inhibition of Escherichia coli O157:H7 EDL933 biofilm production at 1 uM after 24 hrs. It is filed as functional. Conditions: O157:H7 EDL933, 24 h.
Assay [9] has as its system Vibrio cholerae. Briefly: Inhibition of Vibrio cholerae N16961 biofilm production at 1 uM after 24 hrs. The format is functional. Conditions: N16961, 24 h.
Assay [10] deals with Escherichia coli. As to the kind of experiment: Antibacterial activity MTAN-deficient Escherichia coli assessed as induction of growth deffect at 0.5 uM after 16 hrs. It is filed as functional, organism-based.
For assay [11], the system named is Vibrio harveyi. Briefly: Inhibition of autoinducer-2 production in Vibrio harveyi BB120 assessed as inhibition of light induction by luminescence induction assay. It is filed as functional. The note with it: Vibrio harveyi ATCC BAA-1116.
In assay [12] the test system is Vibrio cholerae. Briefly: Antimicrobial activity against Vibrio cholerae N16961 assessed as effect on cell growth up to 1 uM. It is filed as functional, organism-based.
Assay [13] concerns Vibrio cholerae. Briefly: Antibacterial activity against Vibrio cholerae N16961 at 1 uM. It is filed as functional, organism-based.
The test system of assay [14] is Vibrio cholerae. As to the kind of experiment: Antibacterial activity against Vibrio cholerae N16961 at 1 uM after 24 hrs. It is filed as functional, organism-based.
In assay [15] the test system is Vibrio cholerae. As to the kind of experiment: Antibacterial activity against Vibrio cholerae N16961 at 2.5 uM. It is filed as functional, organism-based.
Assay [16] concerns the target 5'-methylthioadenosine/S-adenosylhomocysteine nucleosidase (Escherichia coli O157:H7, UniProt P0AF14). The description is as §1.
Assay [17] concerns the target T2, 5'-methylthioadenosine/S-adenosylhomocysteine nucleosidase (Vibrio cholerae serotype O1 (strain ATCC 39315 / El Tor Inaba N16961)) (UniProt Q9KPI8).
T2 sequence (whole entry): T1 sequence (Q9KPI8 whole entry)
The note with it: 1 uM.

Assay [18] deals with T2, 5'-methylthioadenosine/S-adenosylhomocysteine nucleosidase (Vibrio cholerae serotype O1 (strain ATCC 39315 / El Tor Inaba N16961)). Conditions: 1 uM. This is another data set of the same source.
Assay [19] relates to Escherichia coli. Briefly: Ratio of Km to Ki for Escherichia coli MTAN.

The source made the active and inactive calls. The rule behind the calls is not given here.

The term Kd denotes the constant that tells how readily two partners part at equilibrium. As usually defined, the inhibition is the change of the read-out against control, counted positive when it falls. Broadly, the IC50 is the concentration that gives 50% inhibition.

5'-methylthioadenosine/S-adenosylhomocysteine nucleosidase (Escherichia coli O157:H7, UniProt P0AF14), sequence (P0AF14 whole entry): as the sequence (P0AF14 whole entry, looked up) above

In the case of `Nc1ncnc2c([C@@H]3N[C@H](CSCc4ccccc4)[C@@H](O)[C@H]3O)c[nH]c12`, the Kd in assay [1] stood at 2.1 nM.
With `CCCCSC[C@H]1CN(Cc2c[nH]c3c(N)ncnc23)C[C@@H]1O`, the result in [2], in assay [3], in assay [4], in assay [6], in [10] and in assay [12] was inactive. Further, the result in assay [13], in assay [14] and in [15] was inactive. Further, the inhibition result in assay [5] was “Dose-dependent effect”. Moreover, in [7], the affinity, expressed as Kd, was 0.3 pM. Also, the inhibition at 1 µM in [8] turned out to be 18%; in assay [9] it was 71%. Also, the inhibition entry in assay [11] is “inactive”.
As to `CCSC[C@H]1N[C@@H](c2c[nH]c3c(N)ncnc23)[C@H](O)[C@@H]1O`, the equilibrium dissociation constant (Kd) in [1] is 1.6 nM.
Consider `CSC[C@H]1CN(Cc2c[nH]c3c(N)ncnc23)C[C@@H]1O`, for which the result in assay [4], in [10] and in assay [12] was inactive. The inhibition result in assay [5] is “Dose-dependent effect”. The half-maximal inhibitory concentration (IC50) in assay [16] is 600 nM. Further, the Kd in [7] was 0.2 pM. Besides, the inhibition entry in assay [17] and in assay [18] was “Active” in each case.
In the case of `Nc1ncnc2c(CN3C[C@H](CSCc4ccccc4)[C@@H](O)C3)c[nH]c12`, in assay [1], the dissociation constant (Kd) is 0.064 nM.
Turning to `Nc1ncnc2c(CN3C[C@H](CSc4ccc(Cl)cc4)[C@@H](O)C3)c[nH]c12`, the Kd in assay [7] was found to be 0.047 pM; in assay [1], 0.33 nM. In addition, the Ratio in assay [19] turned out to be 1e+08. Moreover, the outcome in [12] was inactive.
In the case of `Nc1ncnc2c([C@@H]3N[C@H](CSc4ccc(Cl)cc4)[C@@H](O)[C@H]3O)c[nH]c12`, in [1], the Kd amounted to 2.2 nM.
In the case of `CSC[C@H]1N[C@@H](c2c[nH]c3c(N)ncnc23)[C@H](O)[C@@H]1O`, the Kd in [1] stood at 10 nM.
Take `CCSC[C@H]1CN(Cc2c[nH]c3c(N)ncnc23)C[C@@H]1O`: the result in assay [12] was inactive.

Source of the values: ChEMBL document CHEMBL1240343, “Transition state analogs of 5'-methylthioadenosine nucleosidase disrupt quorum sensing” (Nat Chem Biol, 2009).
